Reference: patent publication US6469028B1, “Synthesis and use of retinoid compounds having negative hormone and/or anatgonist activities” (Allergan, Inc., priority 1995, dated 2002)

Key:
[1] = tested on: retinal pigment epithelium (RPE) cells; experiment: Example 19: proliferation of primary retinal pigment epithelium cultures; type: cell-based, human; conditions: for RPE cell growth: single agent, 10^−12 to 10^−6M (FIG. 18)
Protocol: Primary cultures of human retinal pigment epithelium (RPE) were established according to the method described by Campochiaro et al. in Invest. Opthal & Vis. Sci. 32:65 (1991). 5×10^4 cells were plated in 16-mm wells of 24-well multiwell plates in DMEM (Gibco) containing 5% FBS. […] Cells were fed with fresh media containing the appropriate concentrations of these compounds every two days for a total of five days of treatment. Cells were removed from the plates by gentle digestion with trypsin and the number of cells was counted with an electronic cell counter.
AGN 193109 was tested for its ability to potentiate the anti-proliferative effect of 13-cis retinoic acid (13-cis RA) in primary RPE cultures using conditions and techniques to measure RPE cell proliferation described above. […] More particularly, 13-cis RA is useful in the treatment of several disease states, including acne (Peck et al. N. Engl. J. Med. 300:329 (1977); Jones et al. Br. J. Dermatol. 108:333 (1980)), and squamous cell carcinoma of the skin and cervix in combination treatment with interferon 2α (Lippman et al. J. Natl. Cancer Inst. 84:241 (1992); Moore et al. Seminars in Hematology 31:31 (1994)).
We next tested the ability of AGN 193109 to potentiate the activities of other nuclear receptor hormones in primary RPE cell cultures. Dexamethasone, a synthetic glucocorticoid receptor agonist, is one member of a class of compounds that have been used clinically for their potent anti-inflammatory and immunosuppressive properties. Thyroid hormone (T3; […]) is a natural thyroid hormone receptor agonist used primarily for hormone replacement therapy in the treatment of hypothyroidism.

[2] = tested on: primary RPE cells; experiment: Example 27: proliferation of primary RPE cells with TR-1; type: cell-based, Human; conditions: five days of treatment
Protocol: Human primary RPE cells are obtained and cultured according to standard methods. The cultured cells are divided into four groups and treated as follows. Group 1 receives vehicle alone (ethanol). Group 2 is treated with 13-cis retinoic acid at concentrations ranging from 10^−11 to 10^−6 M. Group 3 is treated with the thyroid hormone inverse agonist TR-1 at concentrations ranging from 10^−11 to […]. Group 4 is co-treated with 13-cis retinoic acid at concentrations ranging from 10^−11 to 10^−6 M TR-1. Cells are refed with fresh growth medium and re-treated with the appropriate compound every two days for a total of five days of treatment. The proliferation rate over the duration of the experiment is quantitated via measurement of the cell number in the cultures using an electric cell counter.

[3] = tested on: patients having retinal detachment resulting from PVR; conditions: 40 mg oral 13-cis retinoic acid twice daily for four weeks
[4] = tested on: ER-RAR-α; experiment: Example 10: repression of basal gene activity, ERE-tk-Luc, CV-1 cells; type: cell-based; conditions: 10^−9 to 10^−6 M, 18 hours, single agent
Source text: (§1) More specifically, these procedures employed the ER-RAR chimeric receptor and ERE-tk-Luc reporter system. The ERE-tk-Luc plasmid includes the region −397 to −87 of the estrogen responsive 5′-flanking region of the Xenopus vitellogenin A2 gene, described by Klein-Hitpass, et al. in Cell 46:1053-1061 (1986), ligated upstream of the HSV thymidine kinase promoter and luciferase reporter gene of plasmid tk-Luc. The ER-RAR chimeric receptors consisted of the estrogen receptor DNA binding domain fused to the “D-E-F” domain of the RARs. Those having ordinary skill in the art appreciate this “D-E-F” domain functions to bind retinoid, to provide a retinoid inducible transactivation function and to provide a contact site for heterodimerization with RXR. Thus, luciferase expression in this reporter system was dependent on activation of the transfected chimeric receptor construct.
(§2) CV-1 cells were co-transfected with the ERE-tk-Luc reporter plasmid and either ER-RAR-α, ER-RAR-β or ER-RAR-γ expression plasmids. The ERE-tk-Luc plasmid contained the estrogen-responsive promoter element of the Xenopus laevis vitellogenin A2 gene and was substantially identical to the reporter plasmid described by Klein-Hitpass et al. in Cell 46:1053 (1986), except that the CAT reporter gene was substituted by a polynucleotide sequence encoding luciferase. The ER-RAR-α, ER-RARβ and ER-RAR-γ chimeric receptor-encoding polynucleotides employed in the co-transfection have been described by Graupner et al. in Biochem. Biophys. Res. Comm. 179:1554 (1991). […] Calcium phosphate transfections were carried out exactly as described in Example 6 using 0.5 μg/well of reporter plasmid and either 0.05 μg, 0.10 μg or 0.2 μg/well of receptor plasmid. […] Cell lysates and luciferase activity measurements were performed as described in Example 6.

[5] = tested on: ER-RAR-β; experiment: as above; type: cell-based; conditions: 10^−9 to 10^−6 M, 18 hours, single agent
Source text: as §1, §2

[6] = tested on: ER-RAR-γ; experiment: as above; type: cell-based; conditions: 10^−9 to 10^−6 M, 18 hours, single agent
Source text: as §1, §2

[7] = tested on: cultured cervical carcinoma cells; experiment: Example 23: cultured cervical carcinoma cells from a patient biopsy; type: cell-based; conditions: 10^−10 to 10^−6 M
Source text: A patient presenting with an advanced cervical carcinoma is first identified. A cervical biopsy is obtained according to methods that will be familiar to one having ordinary skill in the art. Cells from the explanted tumor are propagated in tissue culture according to standard techniques to provide cell numbers sufficient to allow division into three sample groups. Culture conditions described by Agarwal et al. in Cancer Res. 54:2108 (1994) are employed for this purpose. The first group is reserved as a control and receives vehicle alone (ethanol). The second group is treated with the RAR agonist retinoic acid at a concentration of from 10^−10 to 10^−6 M. The third group is treated with AGN 193109 at doses ranging from 10^−10 to 10^−6 M. Cells are fed with fresh growth medium daily and are provided with the retinoids described above as appropriate for each sample group. Cells are counted after three days using an electric cell counter.

[8] = tested on: rabbits; experiment: Example 24: rabbit model of proliferative vitreoretinopathy (PVR); type: in vivo
[9] = tested on: RAR-γ-VP-16 with ER-RXR-α; conditions: no other retinoid added, 18 hours
[10] = biological target: T1, RARα (Homo sapiens, UniProt P10276); experiment: Example 8: protease protection analysis; type: biochemical; set-up: host or cells: TNT-coupled reticulocyte lysate in vitro transcription-translation; conditions: ATRA and AGN 193109 100 nM, AGN 193583 1000 nM; trypsin 25, 50 or 100 μg/ml, 10 minutes
T1 sequence (P10276 1-462): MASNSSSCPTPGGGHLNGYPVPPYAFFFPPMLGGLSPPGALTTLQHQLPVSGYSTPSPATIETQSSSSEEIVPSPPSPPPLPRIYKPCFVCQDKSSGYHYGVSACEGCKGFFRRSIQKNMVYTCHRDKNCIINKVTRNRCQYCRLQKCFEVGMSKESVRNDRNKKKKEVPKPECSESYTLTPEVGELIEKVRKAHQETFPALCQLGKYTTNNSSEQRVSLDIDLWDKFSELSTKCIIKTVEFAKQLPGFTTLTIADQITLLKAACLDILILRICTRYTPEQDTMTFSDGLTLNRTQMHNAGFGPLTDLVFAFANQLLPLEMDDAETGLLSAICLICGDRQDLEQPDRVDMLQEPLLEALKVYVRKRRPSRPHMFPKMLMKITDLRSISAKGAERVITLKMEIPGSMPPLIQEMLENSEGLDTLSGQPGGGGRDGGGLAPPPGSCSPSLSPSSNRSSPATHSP
Protocol: A plasmid constructed in the vector pGEM3Z (Pharmacia) and containing the RAR-α cDNA (Giguere et al. Nature 330:624 (1987)), was used in connection with the TNT-coupled reticulocyte lysate in vitro transcription-translation system (Promega) to prepare [^35S]-methionine labeled RAR-α. Limited proteolytic digestion of the labeled protein RAR-α was carried out according to the method described by Keidel et al. in Mol. Cell. Biol. 14:287 (1994). […] After ligand binding, 1 μl of appropriately concentrated trypsin was added to the mixture to give final concentrations of 25, 50 or 100 μg/ml. Samples were incubated at room temperature for 10 minutes and trypsin digestion stopped by addition of SDS-sample buffer. Samples were subjected to polyacrylamide gel electrophoresis and autoradiographed according to standard procedures.

[11] = tested on: T3R-VP-16; experiment: Example 26: thyroid hormone receptor negative hormone assay, CV-1 cells; type: cell-based; conditions: CV-1 cells with ERE-tk-Luc, ER-RXRα and T3R-VP-16
Source text: CV-1 cells are co-transfected with the luciferase reporter plasmid ERE-tk-Luc and the plasmids ER-RXR-α and T3R-VP-16. T3R-VP-16 is identical to the plasmid RAR-γ-VP-16, except the RAR-γ moiety of RAR-γ-VP-16 has been substituted by the thyroid hormone receptor cDNA. As such, T3R-VP-16 expresses a fusion protein containing the activation domain of HSV VP-16 in frame with the N-terminus of the thyroid hormone receptor. Standard transfection and cell culture methods are employed for this purpose. After transfection, cells are rinsed and fed with growth medium containing 10% fetal calf serum which has been extracted with activated charcoal. Cells are treated with vehicle alone (ethanol), thyroid hormone (10^−9 to 10^−10 M), or compound TR-1 (10^−9 to 10^−6 M). […] Further, TR-1 is capable of antagonizing thyroid hormone mediated transactivation and as such is a thyroid receptor antagonist.

Row | Structure (SMILES) | effectiveness compared with ATRA ([1]; 13-cis RA 10^−12 to 10^−6M) | RPE cell growth [1] | cellular proliferation, single agent [2] | incidence of retinal redetachment [3] | luciferase reporter activity [4] | luciferase reporter activity [5] | luciferase reporter activity [6] | RPE cell proliferation ([1]; single-agent treatment (FIG. 19): dexamethasone 10^−11 to 10^−6M, ATRA 10^−12 to 10^−6M) | cell number after three days [7] | frequency and severity of tractional retinal detachment ([8]; retinoic acid 100 μg intravitreal, single agent) | luciferase activity of triple transfectants [9] | pattern of trypsin sensitivity of labeled RAR-α after prebinding [10] | RPE cell proliferation ([1]; thyroid hormone alone, 10^−11 to 10^−6M) | retinal detachment compared with control rabbits ([8]; second study, single agent 100 μg intravitreal) | luciferase activity [11]
1 | CC1=C(/C=C/C(C)=C/C=C/C(C)=C\C(=O)O)C(C)(C)CCC1 [13-cis RA, 13-cis retinoic acid, reference compound] | approximately two orders of magnitude less effective | effectively inhibited RPE cell growth | dose dependent decrease in cell number | significantly reduced incidence of retinal redetachment | – | – | – | – | – | – | – | – | – | – | –
2 | CC1=C(/C=C/C(C)=C/C=C/C(C)=C/C(=O)O)C(C)(C)CCC1 [ATRA, all-trans-retinoic acid, reference compound] | – | effectively inhibited RPE cell growth | – | – | strongly induced luciferase expression | strongly induced luciferase expression | strongly induced luciferase expression | substantially unable to inhibit RPE cell proliferation | does not substantially inhibit the growth rate | significantly reduced frequency and severity of retinal detachment | modest increase of luciferase activity over the high basal level | two major protease resistant species | – | – | –
3 | N[C@@H](Cc1cc(I)c(Oc2ccc(O)c(I)c2)c(I)c1)C(=O)O [thyroid hormone, 3,3′,5-triiodothyronine, reference compound] | – | – | – | – | – | – | – | – | – | – | – | – | refractory to single-agent treatment | does not inhibit retinal detachment | slight increase of luciferase activity in a dose dependent manner
